Patent US20050180956A1, “SSAO enzyme substrates for vasorelaxation, and methods of use thereof” (priority 2004, published 2005)
Read-outs that look alike come from different tables or passages of the source.

Tests used:
[1] = system: human left internal mammary artery (LIMA)
[2] = system: human left internal mammary artery (LIMA); assay: Vascular ring physiology, isolated human left internal mammary artery rings; conditions: for response in HI K+-precontracted LIMA, % of HI K+ tension (contraction): n=9,3,6; for EC50: Homo sapiens; for % Response, contraction (C), LIMA / % Response, relaxation (R), LIMA: NE-precontracted (1 μM) LIMA, 10 min exposure to 1 mmol/L, percentage change of NE-precontraction tension; for effect of pretreatment on MA-induced relaxation: L-NAME 200 μmol/L and/or INDO 100 μmol/L
[3] = target: homogenized rat aortic SSAO activity (Rattus norvegicus, UniProt O08590); conditions: read-out: Km for homogenized rat aortic SSAO activity; cited from earlier work
homogenized rat aortic SSAO activity, sequence (O08590 whole entry): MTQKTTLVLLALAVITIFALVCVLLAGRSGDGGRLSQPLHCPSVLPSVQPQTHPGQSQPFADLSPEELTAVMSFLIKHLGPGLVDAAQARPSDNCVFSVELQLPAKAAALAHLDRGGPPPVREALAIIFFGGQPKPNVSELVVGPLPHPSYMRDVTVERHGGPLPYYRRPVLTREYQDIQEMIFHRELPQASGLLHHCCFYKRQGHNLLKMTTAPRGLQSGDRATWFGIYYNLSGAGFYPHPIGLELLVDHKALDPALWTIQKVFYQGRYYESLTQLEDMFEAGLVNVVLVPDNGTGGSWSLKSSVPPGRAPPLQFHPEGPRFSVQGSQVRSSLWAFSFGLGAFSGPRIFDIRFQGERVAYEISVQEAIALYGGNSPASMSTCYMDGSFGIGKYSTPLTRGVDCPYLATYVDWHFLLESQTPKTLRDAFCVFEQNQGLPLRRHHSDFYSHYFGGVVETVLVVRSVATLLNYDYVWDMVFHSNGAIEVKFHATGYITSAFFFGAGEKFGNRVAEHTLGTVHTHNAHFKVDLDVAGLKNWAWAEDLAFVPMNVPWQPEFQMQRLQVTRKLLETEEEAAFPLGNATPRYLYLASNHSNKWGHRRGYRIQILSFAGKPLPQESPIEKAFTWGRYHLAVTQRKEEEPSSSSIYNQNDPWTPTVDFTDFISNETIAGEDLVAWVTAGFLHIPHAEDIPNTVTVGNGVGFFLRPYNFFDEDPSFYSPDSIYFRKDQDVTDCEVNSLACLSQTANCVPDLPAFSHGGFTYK

human radial artery (RA) = assay: Vascular ring physiology, isolated human radial artery rings
cGMP level in human LIMA = assay: cGMP ELISA assay in LIMA segments; conditions: NE-precontracted LIMA, MA 1 mmol/L, 30-40 min, control 0.128 ± 0.034
humans = conditions: cited from earlier work
[4] = target: SSAO of human cerebral microvessels (Homo sapiens, UniProt Q16853); conditions: read-out: Km, human cerebral microvessels; cited from earlier work
[5] = target: SSAO of human umbilical artery (Homo sapiens, UniProt Q16853); conditions: read-out: Km, human umbilical artery; cited from earlier work
[6] = target: T1, SSAO activity in homogenized human LIMA (Homo sapiens, UniProt Q16853); assay: Radiometric SSAO assay (14C-benzylamine), homogenized LIMA; type: biochemical; conditions: homogenate preincubated 20 min, 37° C.; n=25
T1 construct: Blood vessel segments were homogenized in Sorensen's Na^+/K^+-phosphate buffered solution; from tissue; host or cells: human left internal mammary artery (LIMA), supernatant of homogenate
T1 sequence (Q16853 1-763): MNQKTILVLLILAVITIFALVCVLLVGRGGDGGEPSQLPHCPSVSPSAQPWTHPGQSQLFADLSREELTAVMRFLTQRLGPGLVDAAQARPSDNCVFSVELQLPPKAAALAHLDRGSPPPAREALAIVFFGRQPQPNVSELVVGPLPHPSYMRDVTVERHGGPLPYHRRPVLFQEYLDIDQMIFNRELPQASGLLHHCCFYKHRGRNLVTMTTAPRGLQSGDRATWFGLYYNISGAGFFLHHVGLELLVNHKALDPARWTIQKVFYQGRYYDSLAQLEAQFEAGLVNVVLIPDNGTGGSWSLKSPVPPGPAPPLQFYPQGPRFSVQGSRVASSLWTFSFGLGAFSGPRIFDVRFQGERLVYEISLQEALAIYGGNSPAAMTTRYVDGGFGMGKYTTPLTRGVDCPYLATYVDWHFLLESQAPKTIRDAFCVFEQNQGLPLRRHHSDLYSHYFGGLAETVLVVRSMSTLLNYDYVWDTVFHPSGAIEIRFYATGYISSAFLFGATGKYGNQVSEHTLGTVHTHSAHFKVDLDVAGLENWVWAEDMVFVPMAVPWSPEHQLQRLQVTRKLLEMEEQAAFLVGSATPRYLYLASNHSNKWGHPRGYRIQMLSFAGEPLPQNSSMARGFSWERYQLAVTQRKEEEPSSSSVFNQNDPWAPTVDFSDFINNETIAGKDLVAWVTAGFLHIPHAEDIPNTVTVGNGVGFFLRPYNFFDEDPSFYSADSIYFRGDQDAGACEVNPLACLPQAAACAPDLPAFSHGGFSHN

[7] = target: T2, SSAO activity in homogenized human RA (Homo sapiens, UniProt Q16853); assay: Radiometric SSAO assay (14C-benzylamine), homogenized RA; type: biochemical; conditions: homogenate preincubated 20 min, 37° C.; n=10
T2 construct: Blood vessel segments were homogenized in Sorensen's Na^+/K^+-phosphate buffered solution; from tissue; host or cells: human radial artery (RA), supernatant of homogenate
T2 sequence (Q16853 1-763): T1 sequence (Q16853 1-763)

[8] = target: T3, SSAO activity in homogenized human RSV (Homo sapiens, UniProt Q16853); assay: Radiometric SSAO assay (14C-benzylamine), homogenized RSV; type: biochemical; conditions: homogenate preincubated 20 min, 37° C.; n=5
T3 sequence (Q16853 1-763): T1 sequence (Q16853 1-763)

[9] = target: T4, SSAO in human saphenous vein (Homo sapiens, UniProt Q16853); conditions: read-out: IC50 of SSAO inhibition in human saphenous vein, literature; cited from earlier work
T4 sequence (Q16853 1-763): T1 sequence (Q16853 1-763)

[10] = read-out: Apparent EC50, contraction (C), LIMA
[11] = read-out: Apparent EC50, relaxation (R), LIMA
[12] = NE-precontracted LIMA, repeated methylamine exposure, n=5

CC(=O)OCC[N+](C)(C)C [ACh, acetylcholine]
mean relaxation half time (t1/2), NE-precontracted LIMA [1]: 1.07 ± 0.122 min | ACh-induced relaxation, ACh added after MA (post-MA ACh) ([2]; NE-precontracted LIMA, ACh 1 μmol/L, n=20, mean ± SE): 14±6% | ACh-induced relaxation, ACh added before MA (pre-MA ACh) ([2]; NE-precontracted LIMA, ACh 1 μmol/L, n=21, mean ± SE): 25±6%

C=O [Formaldehyde, formaldehyde]
response in HI K+-precontracted LIMA, % of HI K+ tension (contraction) ([2]; 1 mmol/L, 10 min, mean ± SE): 12.9±2.4% | EC50 [2, 10]: 315 µM | EC50 [2, 11]: 315 µM | % Response, contraction (C), LIMA ([2]; mean ± SE): 3.7 ± 3.7% | % Response, relaxation (R), LIMA ([2]; mean ± SE): 37.3 ± 18.6%

OO [H2O2, hydrogen peroxide]
response in HI K+-precontracted LIMA, % of HI K+ tension (contraction) ([2]; 1 mmol/L, 10 min, mean ± SE): 21.1±7.7% | EC50 [2, 10]: 175 ± 58 µM | EC50 [2, 11]: 162 ± 41 µM | % Response, contraction (C), LIMA ([2]; mean ± SE): 15.8 ± 5.3% | % Response, relaxation (R), LIMA ([2]; mean ± SE): 55.6 ± 9.0%

COc1ccc2c(c1)c(CC(=O)O)c(C)n2C(=O)c1ccc(Cl)cc1 [INDO, indomethacin]
effect of pretreatment on MA-induced relaxation ([2]; NE-precontracted LIMA, 20 min): neither INDO alone (100 μmol/L; 20 min) nor L-NAME+INDO pretreatment affected the MA-induced relaxation

COC(=O)[C@@H](N)CCCNC(=N)N[N+](=O)[O-] [L-NAME, N^ω-nitro-L-arginine methyl ester]
effect of pretreatment on ACh-induced relaxation ([2]; L-NAME 200 μmol/L, 20 min, subset of LIMA rings with relatively strong ACh relaxation): significantly inhibited the ACh-induced relaxation | effect of pretreatment on MA-induced relaxation ([2]; NE-precontracted LIMA, 20 min): had no effect on MA-induced relaxation

C=CCN [allylamine, reference compound]
Km [3]: 145 µM

CN [methylamine]
EC50 (human radial artery (RA); read-out: Apparent EC50, contraction (C), RA): 65 ± 48 µM | EC50 (human radial artery (RA); read-out: Apparent EC50, relaxation (R), RA): 280 ± 40 µM | [cGMP], LIMA, <50% relaxation subgroup (cGMP level in human LIMA; vessels with <50% relaxation (n=3)): 0.067 ± 0.029 pmol/mg | [cGMP], LIMA, >50% relaxation subgroup (cGMP level in human LIMA; vessels with >50% relaxation (n=6)): 0.227 ± 0.066 pmol/mg | [cGMP], RSV (cGMP level in human RSV): 0.109 ± 0.030 pmol/mg | fatalities after accidental exposure (humans; 35 persons hospitalized 7-8 hours post-exposure to spilled purified liquid methylamine): 6 | persons with light to deep coma after accidental exposure (humans; of 35 people): 10 of 35 | Km [3]: 247 µM | Km [4]: 22 µM | Km [5]: 832 µM | response in HI K+-precontracted LIMA, % of HI K+ tension (contraction) ([2]; 1 mmol/L, 10 min, mean ± SE): 1.7±3.9% | EC50 [2, 11]: 230 ± 30 µM | ACh relaxation after prior exposure, percentage reduction in HI K+ contraction ([2]; LIMA n=7, ACh 1 μM after methylamine 1 mM 10 min (± SEMI 1 mM 15 min) and three PSS bath changes): 20 ± 11% | HI K+ contraction after prior exposure, percentage of control norepinephrine contraction ([2]; LIMA n=7, HI K+ 100 mM after methylamine 1 mM 10 min (± SEMI 1 mM 15 min) and three PSS bath changes): 102 ± 23% | SNP relaxation after prior exposure, percentage reduction in HI K+ contraction ([2]; LIMA n=7, SNP 100 μM after methylamine 1 mM 10 min (± SEMI 1 mM 15 min) and three PSS bath changes): 90 ± 11% | methylamine relaxation relative to ACh-induced relaxation ([2]; LIMA, on average, regardless of order of addition): > 2 times | % Response, contraction (C), LIMA ([2]; mean ± SE): 0.6 ± 0.3% | % Response, relaxation (R), LIMA ([2]; mean ± SE): 55.4 ± 3.9% | % relaxation, 3rd relaxation ([2]; NE-precontracted LIMA, repeated methylamine exposure, n=1): 82.1% | % relaxation, 1st relaxation [2, 12]: 72.0±7.5% | % relaxation, 2nd relaxation [2, 12]: 60.8±12.6% | % reduction of NE-contraction, methylamine post-NE ([2]; NE-precontracted LIMA, 1 mmol/L, 10 min, n=9, mean ± SE): 61±5% | % Relaxation, LIMA, <50% relaxation subgroup ([2]; NE-precontracted LIMA, MA 1 mmol/L, 30-40 min, vessels with <50% relaxation (n=3)): 34.1 ± 7.1% | % Relaxation, LIMA, >50% relaxation subgroup ([2]; NE-precontracted LIMA, MA 1 mmol/L, 30-40 min, vessels with >50% relaxation (n=6)): 87.8 ± 5.0% | Apparent EC50, contraction (C), LIMA ([2]; cumulative concentrations 1-1000 μM, uncontracted and NE-precontracted vessels pooled, mean ± SE): not observed | % reduction of NE-contraction, methylamine pre-NE ([2]; unstimulated LIMA exposed to 1 mmol/L, 10 min, before NE, n=5, mean ± SE): 53±7%

NNC(N)=O [semicarbazide]
IC50 [6]: 16.7 ± 19.5 µM | IC50 [7]: 21.2 ± 11.2 µM | IC50 [8]: 14.7 µM | IC50 [9]: 500 µM | mean % reversal of methylamine-induced relaxation ([2]; NE-precontracted LIMA, within 10 min of addition of 1 mmol/L semicarbazide, n=2): 63.0±15.8% | effect of pretreatment on methylamine-induced relaxation in LIMA ([2]; semicarbazide pretreatment 1 mmol/L, 15 min, no effect on NE contraction or ACh relaxation): significantly reduced the methylamine-induced relaxation
